The text below walks through data of patent US10479788B2, “Compounds that inhibit MPS1 kinase” (Cancer Research Technology Limited, priority 2012, dated 2019).

The test has as its target full length MPS1 (Homo sapiens (Human), UniProt P33981). Kind of test: Measurement of Inhibition of MPS1 Kinase. It is filed as biochemical. Conditions: full length MPS1 12.5 nM or 3 nM, H236 peptide 5 μM, ATP 10 μM, 60 min at room temperature, Caliper EZ reader II. How it is done:
The reaction was carried out for 60 min at room temperature and stopped by the addition of buffer (10 μl) containing 20 mM EDTA, 0.05% (v/v) Brij-35, in 0.1M HEPES-buffered saline (Free acid, Sigma, UK). The plate was read on a Caliper EZ reader II (Caliper Life Sciences).
The % inhibition of the compounds is calculated relative to the means of selected control wells. […] The % inhibitions at each concentration are then fitted to a 4 parameter logistic fit: y=(a+((b−a)/(1+((c/x^d)))) where a=asym min, b=asym max, c=IC50 and d=hill coefficient

Sequence of full length MPS1 (P33981 whole entry): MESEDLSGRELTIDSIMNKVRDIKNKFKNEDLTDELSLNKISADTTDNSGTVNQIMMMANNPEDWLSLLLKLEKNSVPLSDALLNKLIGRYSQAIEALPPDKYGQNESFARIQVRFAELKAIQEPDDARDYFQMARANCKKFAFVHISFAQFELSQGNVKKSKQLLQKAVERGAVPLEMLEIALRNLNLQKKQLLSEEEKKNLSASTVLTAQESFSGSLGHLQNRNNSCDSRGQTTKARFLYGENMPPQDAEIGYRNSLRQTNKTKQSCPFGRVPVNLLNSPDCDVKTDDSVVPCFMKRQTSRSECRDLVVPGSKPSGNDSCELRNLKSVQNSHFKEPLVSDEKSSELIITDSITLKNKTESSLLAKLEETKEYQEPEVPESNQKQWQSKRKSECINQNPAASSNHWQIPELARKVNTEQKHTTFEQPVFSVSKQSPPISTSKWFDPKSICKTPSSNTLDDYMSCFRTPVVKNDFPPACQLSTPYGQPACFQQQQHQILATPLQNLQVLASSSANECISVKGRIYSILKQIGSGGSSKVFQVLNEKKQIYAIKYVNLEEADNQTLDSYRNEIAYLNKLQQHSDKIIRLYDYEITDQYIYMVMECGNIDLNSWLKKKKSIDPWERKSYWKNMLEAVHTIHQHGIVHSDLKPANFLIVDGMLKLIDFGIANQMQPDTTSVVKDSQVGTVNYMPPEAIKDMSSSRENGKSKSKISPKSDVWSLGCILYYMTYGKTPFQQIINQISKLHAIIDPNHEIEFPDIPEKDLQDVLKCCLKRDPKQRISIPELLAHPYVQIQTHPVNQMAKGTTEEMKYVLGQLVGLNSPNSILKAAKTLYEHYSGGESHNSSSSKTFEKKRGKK

As for `COc1cc(-c2cnn(C)c2)ccc1Nc1ncc2ccnc(N3CCCC3C)c2n1` (stereo not shown) [Example 64], it took 6 nM to reach half-maximal inhibition (IC50).
